Where “and” joins values, the source holds several entries; their conditions need not be identical. Identical values can stand only once. Like-named read-outs stand apart in the source and are kept apart here.
Assays:
[1] = target: SARS-CoV-2 NSP3 macrodomain (Mac1) (Severe acute respiratory syndrome coronavirus 2, UniProt P0DTD1); experiment: biochemical; format: binding; conditions: for fold decrease in affinity compared to AVI-607: HTRF
[2] = target: SARS-CoV-2 NSP3 macrodomain (Mac1), P43 crystal form (Severe acute respiratory syndrome coronavirus 2, UniProt P0DTD1); format: binding; conditions: for 1-BDC: PanDDA background density correction; for Total number of conformations: ligand conformations modeled in Mac1 crystal structure
[3] = Single dose, concentration 200 μM, read-out: Average % competition
[4] = preliminary screen, compound at 200 μM, mean of 3-4 technical replicates, read-out: % competition in HTRF assay
[5] = ligand modeling in Mac1 crystal soak
[6] = stereoisomer(s) of ligand modeled in Mac1 crystal structure
[7] = SARS CoV-2 macrodomain HTRF assay
[8] = SARS CoV-2 macrodomain HTRF assay, dose-response, read-out: Ki
[9] = crystal soak 10 mM, P43 crystals
[10] = crystal soak 10 mM, DMSO background map
[11] = ligand modeling in Mac1 crystal structure
[12] = stereoisomer(s) modeled in Mac1 crystal structure
[13] = dose-response, read-out: SARS CoV-2 macrodomain HTRF assay: IC50
[14] = dose-response, read-out: SARS CoV-2 macrodomain HTRF assay: Ki
[15] = from SARS CoV-2 macrodomain HTRF assay
[16] = Single dose, concentration 200 μM, read-out: SARS CoV-2 macrodomain HTRF assay: Average % competition
[17] = soak concentration 10 mM, DMSO background map

Structure (SMILES): OCC(Cc1ccccn1)Nc1ncnc2[nH]ccc12 (centres unmarked) [AVI-3696]
- inhibition at 200 µM [1, 3]: 34%
- inhibition at 200 µM [1, 4]: 34%
- Number of isomers bound [2, 5]: 2
- Isomers modeled [2, 6]: R,S

Structure (SMILES): Cc1c[nH]c2ncnc(NCC(C)(C)O)c12 [AVI-3758, 2-methyl-1-((5-methyl-7H-pyrrolo[2,3-d]pyrimidin-4-yl)amino)propan-2-ol]
- Hill slope ([1]; HTRF dose-response fit, Mac1): 1.0
- Ligand efficiency (binding enery per heavy atom) [1, 7]: 0.40
- Hill slope ([1]; SARS CoV-2 macrodomain HTRF assay, dose-response): 1.0
- Ki [1, 8]: 26 µM
- IC50 ([1]; read-out: HTRF IC50): 28 µM
- Occupancy difference (refined_occupancy - 2*(1-BDC)) [2]: 22
- Refined ligand occupancy (%) [2]: 50%
- 1-BDC [2]: 0.14
- X-ray crystal structure ([2]; X-ray crystal structure determined (TRUE)): TRUE
- Hit (PanDDA run, overall) [2, 9]: TRUE
- Hit (PanDDA run, DMSO background map) [2, 10]: TRUE
- 1-BDC (PanDDA run, DMSO background map) ([2]; crystal soak 10 mM, DMSO background map, event 1): 0.19 and 0.14
- Total number of conformations [2]: 2
- Number of isomers bound [2, 11]: 1
- 2*(1-BDC) (%) ([2]; occupancy estimate from PanDDA BDC): 28%
- Binding site ([2]; site of ligand in X-ray crystal structure): Adenosine
- Isomers modeled [2, 12]: achiral,achiral

Structure (SMILES): O[C@H]1CC[C@@H]2CCN(c3ncnc4[nH]ccc34)[C@@H]21 [AVI-3664]
- IC50 [1, 13]: 28 µM
- Ki [1, 14]: 26 µM
- Ligand efficiency (binding enery per heavy atom) [1, 15]: 0.35
- PanDDA run, TFA/DMSO background map: 1-BDC ([2]; crystal soak 10 mM): 0.15
- PanDDA run, TFA/DMSO background map: Hit ([2]; crystal soak 10 mM): TRUE
- Number of isomers bound [2, 5]: 1
- Isomers modeled [2, 6]: SRS

Structure (SMILES): OCCC(CO)Nc1ncnc2[nH]ccc12 (centres unmarked) [AVI-3734]
- Ligand efficiency (binding enery per heavy atom) [1, 7]: 0.37
- Ki [1, 8]: 48 µM
- IC50 ([1]; read-out: HTRF IC50): 52 µM
- Number of isomers bound [2, 5]: 1

Structure (SMILES): OC1CCCN(c2ncnc3[nH]ccc23)C1 (centres unmarked) [AVI-3646]
- inhibition at 200 µM [1, 3]: 20%
- inhibition at 200 µM [1, 4]: 20%
- PanDDA run, TFA/DMSO background map: 1-BDC ([2]; crystal soak 10 mM): 0.13
- PanDDA run, TFA/DMSO background map: Hit ([2]; crystal soak 10 mM): TRUE
- Number of isomers bound [2, 5]: 1

Structure (SMILES): OC[C@@H]1C[C@H](F)CN1c1ncnc2[nH]ccc12 [AVI-609]
- inhibition at 200 µM [1, 16]: 52%
- inhibition at 200 µM [1, 4]: 52%
- Number of isomers bound [2, 5]: 1

Structure (SMILES): OCC(Nc1ncnc2[nH]ccc12)C1CC1 (centres unmarked) [AVI-3651]
- Ligand efficiency (binding enery per heavy atom) [1, 7]: 0.38
- IC50 ([1]; SARS CoV-2 macrodomain HTRF assay, dose-response, read-out: IC50): 48 µM
- Ki [1, 8]: 45 µM
- PanDDA run, TFA/DMSO background map: 1-BDC ([2]; crystal soak 10 mM): 0.16
- PanDDA run, TFA/DMSO background map: Hit ([2]; crystal soak 10 mM): TRUE
- Number of isomers bound [2, 5]: 1

Structure (SMILES): OC[C@H]1CN2CCC[C@H]2CN1c1ncnc2[nH]ccc12 [AVI-3724]
- inhibition at 200 µM [1, 16]: < 10%
- inhibition at 200 µM [1, 4]: < 10%
- Pandda run, overall: Hit [2, 9]: TRUE
- Pandda run, overall: Modeling comment [2, 9]: Weak density, not modeled
- PanDDA run, DMSO background map: 1-BDC [2, 10]: 0.05
- PanDDA run, DMSO background map: Hit [2, 10]: TRUE

Structure (SMILES): OC1(CNc2ncnc3[nH]ccc23)CCSCC1 [AVI-4319]
- IC50 [1, 13]: 170 µM
- Ki [1, 14]: 160 µM
- Ligand efficiency (binding enery per heavy atom) [1, 15]: 0.29
- Number of isomers bound [2, 11]: 1
- Isomers modeled [2, 12]: achiral

Structure (SMILES): OCC(Cc1ccccc1)Nc1ncnc2[nH]ccc12 (centres unmarked) [AVI-313]
- Ligand efficiency (binding enery per heavy atom) [1, 7]: 0.27
- Ki ([1]; SARS CoV-2 macrodomain HTRF assay, read-out: Ki): 120 µM
- IC50 ([1]; read-out: HTRF IC50): 130 µM
- Number of isomers bound [2, 5]: 2
- Isomers modeled [2, 6]: S,R

Structure (SMILES): CCC(Nc1ncnc2[nH]ccc12)C(C)O (centres unmarked) [AVI-3635]
- inhibition at 200 µM [1, 3]: 54%
- inhibition at 200 µM [1, 4]: 54%
- PanDDA run, TFA/DMSO background map: 1-BDC ([2]; crystal soak 10 mM): 0.08
- PanDDA run, TFA/DMSO background map: Hit ([2]; crystal soak 10 mM): TRUE
- Number of isomers bound [2, 5]: 1
- PanDDA run, TFA/DMSO background map: 1-BDC ([2]; soak concentration 10 mM): 0.11
- PanDDA run, TFA/DMSO background map: Hit ([2]; soak concentration 10 mM): TRUE

Structure (SMILES): CN(C)CC(CO)Nc1ncnc2[nH]ccc12 (centres unmarked) [AVI-3671]
- inhibition at 200 µM [1, 3]: < 10%
- inhibition at 200 µM [1, 4]: < 10%
- PanDDA run, TFA/DMSO background map: 1-BDC ([2]; crystal soak 10 mM): 0.13
- PanDDA run, TFA/DMSO background map: Hit ([2]; crystal soak 10 mM): TRUE
- Number of isomers bound [2, 5]: 1

Structure (SMILES): C[C@H]1CC[C@H](CO)N(c2ncnc3[nH]ccc23)C1 (racemic) [AVI-4063]
- IC50 [1, 13]: 56 µM
- Ki [1, 14]: 52 µM
- Ligand efficiency (binding enery per heavy atom) [1, 15]: 0.33
- Number of isomers bound [2, 11]: 1

Structure (SMILES): CC1CCN(C(=O)c2ccc3c(c2)nc(CO)n3C)CC1C(=O)O (centres unmarked) [AVI-348]
- inhibition at 200 µM ([1]; Single dose, 200 μM, mean of three technical replicates, read-out: Average % competition): < 10%
- inhibition at 200 µM [1, 4]: < 10%
- Number of isomers bound [2, 5]: 1

Structure (SMILES): O=C(O)C(F)(F)F.OCC12CC(CN1c1ncnc3[nH]ccc13)C2 [AVI-3681]
- inhibition at 200 µM [1, 16]: 54%
- inhibition at 200 µM [1, 4]: 54%
- PanDDA run, TFA/DMSO background map: 1-BDC ([2]; crystal soak 10 mM): 0.12
- PanDDA run, TFA/DMSO background map: Hit ([2]; crystal soak 10 mM): TRUE
- Number of isomers bound [2, 5]: 1
- Isomers modeled [2, 6]: achiral

Structure (SMILES): CC(C)(O)[C@@H]1CCCN1c1ncnc2[nH]ccc12 [AVI-1445, (S)-2-(1-(7H-pyrrolo[2,3-d]pyrimidin-4-yl)pyrrolidin-2-yl)propan-2-ol]
- fold decrease in affinity compared to AVI-607 [1]: ~ 5 fold
- Hill slope ([1]; HTRF dose-response fit, Mac1): 1.1
- inhibition at 200 µM [1, 16]: 75%
- SARS CoV-2 macrodomain HTRF assay: Hillslope ([1]; dose-response fit): 1.6
- Ki [1, 14]: 100 µM
- Ligand efficiency (binding enery per heavy atom) [1, 15]: 0.31
- inhibition at 200 µM [1, 4]: 75%
- IC50 ([1]; read-out: HTRF IC50): 110 µM
- 1-BDC [2]: 0.12
- Pandda run, overall: Modeled ([2]; crystal soak, soak concentration 10 mM): TRUE
- Pandda run, overall: Hit ([2]; crystal soak, soak concentration 10 mM, TRUE = ligand hit): TRUE
- Total number of conformations [2]: 1
- Number of isomers bound [2, 5]: 1
- 2*(1-BDC) (%) ([2]; occupancy estimate from PanDDA 1-BDC): 24%
- X-ray crystallography: Binding site ([2]; site where the ligand is bound in the X-ray crystal structure): Adenosine
- PanDDA run, DMSO background map: 1-BDC [2, 17]: 0.12
- PanDDA run, DMSO background map: Hit [2, 17]: TRUE
- PanDDA run, TFA/DMSO background map: 1-BDC ([2]; soak concentration 10 mM): 0.12
- PanDDA run, TFA/DMSO background map: Hit ([2]; soak concentration 10 mM): TRUE

Structure (SMILES): OCC1CCCN1c1ncnc2[nH]ccc12 (centres unmarked) [AVI-3685]
- fold decrease in affinity compared to AVI-607 [1]: > 20 fold
- inhibition at 200 µM [1, 16]: 47%
- inhibition at 200 µM [1, 4]: 48%
- Number of isomers bound [2, 5]: 1

Structure (SMILES): O[C@@H]1CN(c2ncnc3[nH]ccc23)C[C@H]1F [AVI-616]
- inhibition at 200 µM [1, 3]: 15%
- inhibition at 200 µM [1, 4]: 15%
- Number of isomers bound [2, 5]: 1

Structure (SMILES): CC(C)C1CCCN1c1ncnc2[nH]ccc12 (centres unmarked) [AVI-5216]
- inhibition at 200 µM [1, 16]: 35%
- inhibition at 200 µM [1, 4]: 35%
- Number of isomers bound [2, 11]: 1

Structure (SMILES): CCC1(O)CCN(c2ncnc3[nH]ccc23)C1 (centres unmarked) [AVI-612]
- inhibition at 200 µM [1, 3]: 22%
- inhibition at 200 µM [1, 4]: 22%
- Number of isomers bound [2, 5]: 1

Structure (SMILES): OC1(CNc2ncnc3[nH]ccc23)CCOCC1 [AVI-4314]
- IC50 [1, 13]: 230 µM
- Ki [1, 14]: 210 µM
- Ligand efficiency (binding enery per heavy atom) [1, 15]: 0.28
- Number of isomers bound [2, 11]: 1
- Isomers modeled [2, 12]: achiral

Structure (SMILES): CCC(Nc1ncnc2[nH]ccc12)C(C)(C)O (centres unmarked) [AVI-3667]
- inhibition at 200 µM [1, 3]: 51%
- inhibition at 200 µM [1, 4]: 51%
- PanDDA run, TFA/DMSO background map: 1-BDC ([2]; crystal soak 10 mM): 0.07
- PanDDA run, TFA/DMSO background map: Hit ([2]; crystal soak 10 mM): TRUE
- Number of isomers bound [2, 5]: 1

Structure (SMILES): OCC(CC(F)(F)F)Nc1ncnc2[nH]ccc12 (centres unmarked) [AVI-3637]
- inhibition at 200 µM [1, 3]: 50%
- inhibition at 200 µM [1, 4]: 50%
- Number of isomers bound [2, 5]: 1
- PanDDA run, TFA/DMSO background map: 1-BDC ([2]; soak concentration 10 mM): 0.21
- PanDDA run, TFA/DMSO background map: Hit ([2]; soak concentration 10 mM): TRUE

Structure (SMILES): OCC(Nc1ncnc2[nH]ccc12)c1ccccc1 (centres unmarked) [AVI-3715]
- inhibition at 200 µM [1, 3]: 54%
- inhibition at 200 µM [1, 4]: 54%
- Number of isomers bound [2, 5]: 1
- PanDDA run, TFA/DMSO background map: 1-BDC ([2]; soak concentration 10 mM): 0.09
- PanDDA run, TFA/DMSO background map: Hit ([2]; soak concentration 10 mM): TRUE

Structure (SMILES): OC1(CNc2ncnc3[nH]ccc23)COC2CC1C2 (centres unmarked) [AVI-4313]
- IC50 [1, 13]: 130 µM
- Ki [1, 14]: 120 µM
- Ligand efficiency (binding enery per heavy atom) [1, 15]: 0.29
- Number of isomers bound [2, 11]: 1
